Measurements reported in ChEMBL document CHEMBL4190187, “Discovery of pyrazolopyrimidine derivatives as novel inhibitors of ataxia telangiectasia and rad3 related protein (ATR)” (Bioorg Med Chem Lett, 2017).

Tests used:
[1] = molecular target: Serine/threonine-protein kinase 17B (Homo sapiens) (UniProt O94768); test: Inhibition of recombinant full-length human DRAK2 at 1 uM using KKRPQRRYSNVF as substrate after 120 mins in presence of [gamma-33P]ATP by scintillation counting method
[2] = molecular target: Dual specificity mitogen-activated protein kinase kinase 2 (Homo sapiens) (UniProt P36507); test: Inhibition of recombinant full-length human MEK2 at 1 uM using MBP as substrate after 40 mins in presence of [gamma-33P]ATP by scintillation counting method
[3] = molecular target: Casein kinase II subunit alpha (Homo sapiens) (UniProt P68400); test: Inhibition of recombinant full-length human CK2alpha1 at 1 uM using RRRDDDSDDD as substrate after 40 mins in presence of [gamma-33P]ATP by scintillation counting method
[4] = molecular target: Protein kinase C epsilon type (Homo sapiens) (UniProt Q02156); test: Inhibition of recombinant human PKCepsilon (2 to end residues) at 1 uM using ERMRPRKRQGSVRRRV as substrate after 40 mins in presence of [gamma-33P]ATP by scintillation counting method
[5] = molecular target: Tyrosine-protein kinase JAK3 (Homo sapiens) (UniProt P52333); test: Inhibition of recombinant human JAK3 (781 to end residues) at 1 uM using GGEEEEYFELVKKKK as substrate after 40 mins in presence of [gamma-33P]ATP by scintillation counting method
[6] = molecular target: Serine-protein kinase ATM (Homo sapiens) (UniProt Q13315); test: Inhibition of recombinant full-length human ATM at 1 uM using GST-cMyc-p53 as substrate after 40 mins in presence of [gamma-33P]ATP by scintillation counting method
[7] = molecular target: PI3K p110 beta/p85 alpha (Mus musculus) (UniProt P26450+Q8BTI9); test: Inhibition of recombinant full-length mouse p110b/p85a at 1 uM using phosphatidylinositol 4,5-bisphosphate as substrate after 40 mins in presence of [gamma-33P]ATP by scintillation counting method; assay type: protein-complex assay
[8] = molecular target: Calcium/calmodulin-dependent protein kinase type II subunit beta (Homo sapiens) (UniProt Q13554); test: Inhibition of recombinant human CAMK2beta (1 to 315 residues) at 1 uM using […] after 40 mins in presence of [gamma-33P]ATP by scintillation counting method
[9] = molecular target: Serine/threonine-protein kinase WNK3 (Homo sapiens) (UniProt Q9BYP7); test: Inhibition of recombinant human WNK3 (1 to 434 residues) at 1 uM using myelin basic protein as substrate after 40 mins in presence of [gamma-33P]ATP by scintillation counting method
[10] = Apparent volume of distribution in mouse at 2 mg/kg, iv or 10 mg/kg, po; assay type: ADME, organism-based; details: in vivo, read-out: Vz

Chain of Serine-protein kinase ATM (Homo sapiens) (Q13315 whole entry): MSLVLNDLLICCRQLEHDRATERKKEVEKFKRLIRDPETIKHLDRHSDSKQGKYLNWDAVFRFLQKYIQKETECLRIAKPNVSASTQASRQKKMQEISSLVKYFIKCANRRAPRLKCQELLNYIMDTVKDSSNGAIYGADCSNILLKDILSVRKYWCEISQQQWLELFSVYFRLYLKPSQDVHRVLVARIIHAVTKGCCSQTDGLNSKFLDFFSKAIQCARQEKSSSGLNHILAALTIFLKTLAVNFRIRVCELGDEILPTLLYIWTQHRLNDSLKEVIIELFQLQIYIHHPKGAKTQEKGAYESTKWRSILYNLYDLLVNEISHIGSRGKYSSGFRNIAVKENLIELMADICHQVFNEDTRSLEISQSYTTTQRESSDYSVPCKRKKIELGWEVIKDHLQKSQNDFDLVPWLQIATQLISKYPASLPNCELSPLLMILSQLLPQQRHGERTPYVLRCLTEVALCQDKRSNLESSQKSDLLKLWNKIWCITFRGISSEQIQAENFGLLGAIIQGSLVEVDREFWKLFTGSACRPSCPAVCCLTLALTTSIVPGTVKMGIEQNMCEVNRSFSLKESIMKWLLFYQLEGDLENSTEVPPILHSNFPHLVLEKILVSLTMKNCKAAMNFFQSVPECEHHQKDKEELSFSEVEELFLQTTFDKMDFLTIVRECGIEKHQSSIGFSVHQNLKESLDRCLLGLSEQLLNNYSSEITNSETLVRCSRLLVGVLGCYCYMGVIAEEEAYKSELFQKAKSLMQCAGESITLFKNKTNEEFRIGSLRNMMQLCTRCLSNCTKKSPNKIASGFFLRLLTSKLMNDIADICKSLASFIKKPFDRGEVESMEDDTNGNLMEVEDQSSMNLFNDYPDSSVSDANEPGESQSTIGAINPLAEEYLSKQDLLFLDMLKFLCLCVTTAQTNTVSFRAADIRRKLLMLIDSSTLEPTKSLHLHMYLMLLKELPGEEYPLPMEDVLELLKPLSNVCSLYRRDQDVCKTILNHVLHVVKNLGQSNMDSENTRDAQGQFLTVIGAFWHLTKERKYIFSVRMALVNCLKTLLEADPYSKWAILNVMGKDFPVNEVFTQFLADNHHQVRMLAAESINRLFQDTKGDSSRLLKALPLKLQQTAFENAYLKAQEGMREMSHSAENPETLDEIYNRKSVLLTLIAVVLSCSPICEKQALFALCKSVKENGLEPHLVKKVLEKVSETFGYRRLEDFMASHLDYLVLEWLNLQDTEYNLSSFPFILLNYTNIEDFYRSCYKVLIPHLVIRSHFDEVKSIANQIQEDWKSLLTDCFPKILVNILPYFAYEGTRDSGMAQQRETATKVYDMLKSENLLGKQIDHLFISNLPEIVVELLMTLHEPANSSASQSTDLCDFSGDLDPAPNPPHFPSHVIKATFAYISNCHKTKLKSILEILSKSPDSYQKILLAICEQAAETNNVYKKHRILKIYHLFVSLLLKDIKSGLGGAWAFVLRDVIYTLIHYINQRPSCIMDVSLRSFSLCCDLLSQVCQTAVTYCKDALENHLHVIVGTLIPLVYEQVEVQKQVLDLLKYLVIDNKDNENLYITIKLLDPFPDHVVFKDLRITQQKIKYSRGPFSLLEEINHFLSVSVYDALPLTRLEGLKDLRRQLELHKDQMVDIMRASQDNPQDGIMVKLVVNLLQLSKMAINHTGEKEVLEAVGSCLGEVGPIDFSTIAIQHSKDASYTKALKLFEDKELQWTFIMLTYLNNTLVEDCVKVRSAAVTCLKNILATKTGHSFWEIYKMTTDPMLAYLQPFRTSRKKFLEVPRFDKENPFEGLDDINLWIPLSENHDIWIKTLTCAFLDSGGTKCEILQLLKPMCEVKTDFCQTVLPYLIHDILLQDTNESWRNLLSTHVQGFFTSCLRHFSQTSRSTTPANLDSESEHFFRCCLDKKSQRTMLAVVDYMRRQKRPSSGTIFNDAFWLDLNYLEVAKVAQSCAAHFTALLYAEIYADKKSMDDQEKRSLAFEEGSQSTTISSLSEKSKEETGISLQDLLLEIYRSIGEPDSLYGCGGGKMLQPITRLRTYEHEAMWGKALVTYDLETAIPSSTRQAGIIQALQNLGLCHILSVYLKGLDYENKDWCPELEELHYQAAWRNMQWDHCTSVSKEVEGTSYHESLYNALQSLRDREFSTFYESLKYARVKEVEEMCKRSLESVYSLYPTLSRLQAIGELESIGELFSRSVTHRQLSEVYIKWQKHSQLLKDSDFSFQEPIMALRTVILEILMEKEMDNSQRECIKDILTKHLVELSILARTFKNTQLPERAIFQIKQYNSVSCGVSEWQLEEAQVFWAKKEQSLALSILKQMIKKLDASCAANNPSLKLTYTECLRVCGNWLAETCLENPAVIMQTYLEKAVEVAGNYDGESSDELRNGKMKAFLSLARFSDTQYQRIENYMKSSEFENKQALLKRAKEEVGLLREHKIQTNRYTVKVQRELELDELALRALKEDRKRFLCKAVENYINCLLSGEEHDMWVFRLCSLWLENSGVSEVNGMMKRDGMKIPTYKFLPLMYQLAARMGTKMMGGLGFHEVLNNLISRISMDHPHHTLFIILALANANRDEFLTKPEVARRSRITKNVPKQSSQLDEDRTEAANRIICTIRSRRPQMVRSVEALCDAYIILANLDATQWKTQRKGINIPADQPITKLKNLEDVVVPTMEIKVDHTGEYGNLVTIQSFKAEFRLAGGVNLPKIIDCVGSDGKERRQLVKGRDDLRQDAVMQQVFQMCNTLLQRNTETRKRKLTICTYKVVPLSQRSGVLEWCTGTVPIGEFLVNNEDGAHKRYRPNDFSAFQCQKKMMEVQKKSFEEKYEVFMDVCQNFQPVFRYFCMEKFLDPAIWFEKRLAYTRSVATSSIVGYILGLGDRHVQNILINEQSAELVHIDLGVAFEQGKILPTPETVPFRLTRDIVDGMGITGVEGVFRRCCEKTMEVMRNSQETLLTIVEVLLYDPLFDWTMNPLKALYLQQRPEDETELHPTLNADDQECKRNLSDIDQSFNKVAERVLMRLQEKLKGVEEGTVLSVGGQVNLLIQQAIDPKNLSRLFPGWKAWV
Chain of Tyrosine-protein kinase JAK3 (Homo sapiens) (P52333 whole entry): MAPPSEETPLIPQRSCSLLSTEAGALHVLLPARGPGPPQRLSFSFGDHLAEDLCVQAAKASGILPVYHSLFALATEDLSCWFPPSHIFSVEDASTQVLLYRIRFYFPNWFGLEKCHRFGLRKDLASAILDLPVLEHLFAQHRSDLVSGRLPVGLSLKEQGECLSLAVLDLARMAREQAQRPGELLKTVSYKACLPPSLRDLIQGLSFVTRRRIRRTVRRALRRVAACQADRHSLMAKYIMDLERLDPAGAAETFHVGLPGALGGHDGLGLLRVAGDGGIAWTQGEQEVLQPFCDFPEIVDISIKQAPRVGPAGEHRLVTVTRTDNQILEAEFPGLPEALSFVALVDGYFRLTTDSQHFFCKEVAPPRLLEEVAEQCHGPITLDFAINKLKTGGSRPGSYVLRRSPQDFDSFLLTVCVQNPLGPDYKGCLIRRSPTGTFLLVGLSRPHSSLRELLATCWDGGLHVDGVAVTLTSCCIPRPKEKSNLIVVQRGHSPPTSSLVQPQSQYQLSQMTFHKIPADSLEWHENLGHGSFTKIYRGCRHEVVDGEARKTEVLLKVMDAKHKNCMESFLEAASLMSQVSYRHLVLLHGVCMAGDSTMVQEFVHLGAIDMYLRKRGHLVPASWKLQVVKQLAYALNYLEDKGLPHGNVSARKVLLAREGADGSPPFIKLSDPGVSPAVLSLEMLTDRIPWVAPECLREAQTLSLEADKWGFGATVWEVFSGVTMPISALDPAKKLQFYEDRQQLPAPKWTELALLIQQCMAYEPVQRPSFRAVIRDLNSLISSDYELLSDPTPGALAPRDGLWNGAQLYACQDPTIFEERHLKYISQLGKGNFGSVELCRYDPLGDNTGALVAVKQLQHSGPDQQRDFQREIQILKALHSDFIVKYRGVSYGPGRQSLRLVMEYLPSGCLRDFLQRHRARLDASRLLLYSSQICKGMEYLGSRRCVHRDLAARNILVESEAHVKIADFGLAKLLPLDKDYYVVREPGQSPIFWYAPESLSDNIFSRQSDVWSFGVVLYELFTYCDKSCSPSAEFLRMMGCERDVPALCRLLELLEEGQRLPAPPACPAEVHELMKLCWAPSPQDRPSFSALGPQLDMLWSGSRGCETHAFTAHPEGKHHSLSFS
Chain of Serine/threonine-protein kinase 17B (Homo sapiens) (O94768 whole entry): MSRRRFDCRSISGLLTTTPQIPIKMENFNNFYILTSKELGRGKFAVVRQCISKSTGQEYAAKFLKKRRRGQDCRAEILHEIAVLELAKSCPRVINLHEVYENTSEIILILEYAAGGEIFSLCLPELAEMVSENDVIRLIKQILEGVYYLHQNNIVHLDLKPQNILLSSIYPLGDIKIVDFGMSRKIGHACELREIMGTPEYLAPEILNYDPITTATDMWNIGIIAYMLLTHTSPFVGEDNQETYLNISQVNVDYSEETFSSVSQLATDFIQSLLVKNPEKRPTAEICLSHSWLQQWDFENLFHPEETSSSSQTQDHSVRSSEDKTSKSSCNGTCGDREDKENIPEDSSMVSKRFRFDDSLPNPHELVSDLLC
Chain of Casein kinase II subunit alpha (Homo sapiens) (P68400 whole entry, looked up): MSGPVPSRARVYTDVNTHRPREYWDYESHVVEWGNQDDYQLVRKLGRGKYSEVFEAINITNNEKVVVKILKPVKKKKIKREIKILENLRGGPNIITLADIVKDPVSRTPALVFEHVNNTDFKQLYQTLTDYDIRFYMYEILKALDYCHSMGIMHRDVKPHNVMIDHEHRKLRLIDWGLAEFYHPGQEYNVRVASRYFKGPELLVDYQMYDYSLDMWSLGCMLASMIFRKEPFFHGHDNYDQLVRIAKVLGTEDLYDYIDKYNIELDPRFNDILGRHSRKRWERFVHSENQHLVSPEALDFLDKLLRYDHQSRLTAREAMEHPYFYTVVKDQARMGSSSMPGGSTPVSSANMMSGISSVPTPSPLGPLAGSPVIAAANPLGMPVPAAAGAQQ

Structure (SMILES): CS(=O)(=O)c1ccc(-n2nc(-c3cnc4[nH]ccc4c3)c3c(N)ncnc32)cc1
- inhibition [1]: 7%
- inhibition [2]: -7%
- inhibition [3]: 19%
- inhibition [4]: 2%
- inhibition [5]: 4%
- inhibition [6]: 28%
- inhibition [7]: 0%
- inhibition [8]: -4%
- inhibition [9]: 43%
- Vd [10]: 2.15 L/kg
